The values below come from patent US7829567B2, “Imino-indeno[1,2-c] quinoline derivatives, their preparation processes, and pharmaceutical compositions comprising the same” (Kaohsiung Medical University, priority 2007, dated 2010).

Like-named read-outs stand apart in the source and are kept apart here. Bounds are passed on as bounds.

Data set [1] has as its system oral squamous cell carcinoma (SAS). Nature of the data set: In vitro anticancer assay (MTT), SAS. Particulars: SAS cells, 48 hrs, mean ± spread, read-out: Anti-proliferative evaluation IC50, SAS. In kind it is cell-based. Summed up:
(§1)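 MTT viability assay read at 570 nm, with formazan dissolved in DMSO. Growth was expressed as percent of control, (Abtreated/Abcontrol)×100, using mean absorbance (n=3).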

Data set [2] has as its system human renal clear cell carcinoma. Nature of the data set: In vitro anticancer assay (MTT), RCC 768-O. Type of data set: cell-based. Particulars: RCC 768-O cells, 48 hrs, mean ± spread, read-out: Anti-proliferative evaluation IC50, RCC 768-O. Summed up:
as §1

The test system of data set [3] is human cervical epithelioid carcinoma (HeLa). Nature of the data set: In vitro anticancer assay (MTT), HeLa. Type of data set: cell-based. Particulars: HeLa cells, 48 hrs, mean ± spread, read-out: Anti-proliferative evaluation IC50, HeLa. Summed up:
as §1

The test system of data set [4] is hepatocellular carcinoma (SKHep1). As to the kind of experiment: In vitro anticancer assay (MTT), SKHep1. Particulars: 48 hrs, mean ± spread, read-out: Anti-proliferative evaluation IC50, SKHep1. Type of data set: cell-based. Summed up: as §1
In data set [5] the test system is human stomach adenocarcinoma (AGS). Nature of the data set: In vitro anticancer assay (MTT), AGS. Particulars: AGS cells, 48 hrs, mean ± spread, read-out: Anti-proliferative evaluation IC50, AGS. Type of data set: cell-based. An outline of the steps:
as §1

In data set [6] the test system is esophageal carcinoma (CE81T). Nature of the data set: In vitro anticancer assay (MTT), CE81T. In kind it is cell-based. Particulars: CE81T cells, 48 hrs, mean ± spread, read-out: Anti-proliferative evaluation IC50, CE81T. Summed up: as §1
Data set [7] concerns cancer cells. Nature of the data set: In vitro anticancer assay, summary over the six cancer cells. Particulars: summary of Table 2. Type of data set: cell-based. The method, then:
Six cancer cells, i.e., cells of human cervical epithelioid carcinoma (HeLa), hepatocellular carcinoma (SKHep1), oral squamous cell carcinoma (SAS), human stomach adenocarcinoma (AGS), human renal clear cell carcinoma (RCC 768-O) and esophageal carcinoma (CE81T), were treated with the selected compounds as indicated for 48 hrs in a medium containing 10% FBS (3-[4,5-Dimethylthiazol-2-yl]-2,5-diphenyltetrazolium bromide (MTT, 2 mg/mL, […]) was added to the cultures and incubated during the final 1.5 hrs. The resultant tetrazolium salt was then dissolved by the addition of dimethyl sulfoxide. Color was measured spectrophotometrically in a microtiter plate reader at 570 nm and used as a relative measure of viable cell number. The number of viable cells after treatment was compared to solvent and untreated control cells and used to determine the percent of control growth as (Abtreated/Abcontrol)×100, where Ab represents the mean absorbance (n=3). The concentration that killed 50% of cells (IC50) was determined from the linear portion of the curve by calculating the concentration of agent that reduced absorbance in treated cells, as compared to control cells, by 50% (S. D. Heo et al. (1990), Cancer Res., 50:3681-3690). (+)-camptothecin (CPT) and doxorubicin hydrochloride (Dox) were used for comparison with the compounds according to this invention.

[8] abbreviates: Homo sapiens, SK-HEP1, SKHep1 cells.

Regarding `CN(C)CCNc1nc2ccccc2c2c1-c1ccccc1C2=O` [Compound 5a, 6-(2-(Dimethylamino)ethylamino)-11H-indeno[1,2-c]quinolin-11-one], the melting point was 148 to 149 °C. Besides, the 50% inhibitory concentration (IC50) in data set [1] turned out to be 6.6 ± 0.9 µM. Also, the IC50 in data set [2] (Homo sapiens) was found to be 7.1 ± 0.6 µM. Moreover, the IC50 in data set [3] (Homo sapiens) is 2.4 ± 1.2 µM. For the same compound, the IC50 in data set [4] (setting [8]) is 3.8 ± 1.8 µM. In data set [5] (Homo sapiens), the IC50 was 7.9 ± 1.5 µM. In addition, in data set [6], the IC50 stood at 4.1 ± 3.3 µM.
Turning to `COc1cccc2c1C(=O)c1c-2c(N2CCNCC2)nc2ccccc12` [Compound 5bb], the IC50 in data set [1] turned out to be 5.1 ± 0.8 µM; in data set [2], 1.7 ± 0.5 µM; in data set [3] it was 0.4 ± 0.1 µM; in data set [4] (SKHep1 cells), 0.7 ± 0.3 µM; in data set [5], 4.1 ± 1.2 µM; in data set [6], 4.9 ± 1.5 µM. Moreover, the “anticancer activity (in words)” value in data set [7] was “broad and potent anticancer activity”.
In turn, `COc1ccc2c(c1)C(=O)c1c-2c(N2CCN(C(=O)CCCl)CC2)nc2ccccc12` [Compound 5hh, 6-[4-(3-Chloropropanoyl)piperazin-1-yl]-9-methoxy-11H-indeno[1,2-c]quinolin-11-one] showed a melting point of 162 to 163 °C.
In the case of `COc1ccc2c(c1)C(=O)c1c-2c(Nc2ccc(C(C)=O)cc2)nc2ccccc12` [Compound 5s, 6-(4-Acetylphenylamino)-9-methoxy-11H-indeno[1,2-c]quinolin-11-one], the melting point lay within 251 to 252 °C. Besides, the IC50 in data set [1] was 6.5 ± 0.9 µM. In addition, the half-maximal inhibitory concentration (IC50) in data set [2] (Homo sapiens) worked out at 9.1 ± 1.5 µM. Moreover, the IC50 in data set [3] (Homo sapiens) was found to be 7.2 ± 0.9 µM. The IC50 in data set [4] (setting [8]) was determined as 7.4 ± 2.1 µM. The IC50 in data set [5] (Homo sapiens) turned out to be 5.9 ± 1.4 µM. Further, the IC50 in data set [6] was determined as 6.8 ± 1.2 µM.
Consider `COc1ccc2c(c1)C(=O)c1c-2c(N2CCNCC2)nc2ccccc12` [Compound 5x, 9-Methoxy-6-(piperazin-1-yl)-11H-indeno[1,2-c]quinolin-11-one], for which the melting point is 150 to 151 °C. For the same compound, in data set [1], the IC50 was more than 30 µM. Also, in data set [2] (Homo sapiens), the IC50 is 12.5 ± 1 µM. The 50% inhibitory concentration (IC50) in data set [3] (Homo sapiens) turned out to be 15.2 ± 1.5 µM. Further, in data set [4] (setting [8]), the IC50 was 25.3 ± 15.5 µM. In data set [5] (Homo sapiens), the IC50 turned out to be 10.1 ± 1.2 µM. In addition, in data set [6], the IC50 is more than 30 µM.
Consider `COc1ccc2c(c1)C(=NO)c1c-2cnc2ccccc12` [Compound 6a, 9-Methoxy-11H-indeno[1,2-c]quinolin-11-one oxime], for which the melting point was 270 to 271 °C.
